Data: the Kinase Knowledgebase extract (Sharma et al. 2016)

How the values were obtained:
PIK3CD (Human) = PIK3CD (Human) (UniProt O00329); assay: Enzyme Assay
PIK3CG (human) = PIK3CG (human) (UniProt P48736); assay: Enzyme Assay
Sequence of PIK3CG (human) (P48736 whole entry, looked up): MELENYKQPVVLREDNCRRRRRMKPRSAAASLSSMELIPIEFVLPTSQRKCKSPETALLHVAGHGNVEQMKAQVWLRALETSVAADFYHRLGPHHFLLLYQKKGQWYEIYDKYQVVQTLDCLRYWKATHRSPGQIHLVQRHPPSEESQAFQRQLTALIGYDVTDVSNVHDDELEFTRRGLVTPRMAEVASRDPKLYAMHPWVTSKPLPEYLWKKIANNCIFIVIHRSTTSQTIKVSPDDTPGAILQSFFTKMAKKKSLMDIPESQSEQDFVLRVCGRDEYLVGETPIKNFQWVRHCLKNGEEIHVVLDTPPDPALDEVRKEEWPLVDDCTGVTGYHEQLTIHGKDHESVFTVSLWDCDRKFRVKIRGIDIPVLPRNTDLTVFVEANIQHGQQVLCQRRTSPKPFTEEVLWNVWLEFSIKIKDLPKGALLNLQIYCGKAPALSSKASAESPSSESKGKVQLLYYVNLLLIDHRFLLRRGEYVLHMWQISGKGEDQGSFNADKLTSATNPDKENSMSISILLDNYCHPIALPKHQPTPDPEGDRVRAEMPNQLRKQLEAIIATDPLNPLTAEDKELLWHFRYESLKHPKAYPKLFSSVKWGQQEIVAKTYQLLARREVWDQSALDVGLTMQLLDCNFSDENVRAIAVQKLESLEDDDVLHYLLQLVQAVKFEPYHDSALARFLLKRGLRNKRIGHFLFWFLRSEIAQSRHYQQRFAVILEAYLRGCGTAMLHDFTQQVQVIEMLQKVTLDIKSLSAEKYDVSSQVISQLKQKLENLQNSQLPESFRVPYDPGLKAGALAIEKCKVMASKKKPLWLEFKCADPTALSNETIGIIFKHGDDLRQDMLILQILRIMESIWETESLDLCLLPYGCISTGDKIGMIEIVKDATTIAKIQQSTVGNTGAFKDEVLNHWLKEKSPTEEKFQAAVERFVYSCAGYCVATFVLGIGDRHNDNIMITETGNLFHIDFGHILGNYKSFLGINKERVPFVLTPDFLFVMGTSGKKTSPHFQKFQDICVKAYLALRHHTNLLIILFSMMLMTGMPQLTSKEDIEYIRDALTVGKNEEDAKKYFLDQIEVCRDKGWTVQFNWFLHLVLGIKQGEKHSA

Sequence of PIK3CD (Human) (O00329 whole entry, looked up): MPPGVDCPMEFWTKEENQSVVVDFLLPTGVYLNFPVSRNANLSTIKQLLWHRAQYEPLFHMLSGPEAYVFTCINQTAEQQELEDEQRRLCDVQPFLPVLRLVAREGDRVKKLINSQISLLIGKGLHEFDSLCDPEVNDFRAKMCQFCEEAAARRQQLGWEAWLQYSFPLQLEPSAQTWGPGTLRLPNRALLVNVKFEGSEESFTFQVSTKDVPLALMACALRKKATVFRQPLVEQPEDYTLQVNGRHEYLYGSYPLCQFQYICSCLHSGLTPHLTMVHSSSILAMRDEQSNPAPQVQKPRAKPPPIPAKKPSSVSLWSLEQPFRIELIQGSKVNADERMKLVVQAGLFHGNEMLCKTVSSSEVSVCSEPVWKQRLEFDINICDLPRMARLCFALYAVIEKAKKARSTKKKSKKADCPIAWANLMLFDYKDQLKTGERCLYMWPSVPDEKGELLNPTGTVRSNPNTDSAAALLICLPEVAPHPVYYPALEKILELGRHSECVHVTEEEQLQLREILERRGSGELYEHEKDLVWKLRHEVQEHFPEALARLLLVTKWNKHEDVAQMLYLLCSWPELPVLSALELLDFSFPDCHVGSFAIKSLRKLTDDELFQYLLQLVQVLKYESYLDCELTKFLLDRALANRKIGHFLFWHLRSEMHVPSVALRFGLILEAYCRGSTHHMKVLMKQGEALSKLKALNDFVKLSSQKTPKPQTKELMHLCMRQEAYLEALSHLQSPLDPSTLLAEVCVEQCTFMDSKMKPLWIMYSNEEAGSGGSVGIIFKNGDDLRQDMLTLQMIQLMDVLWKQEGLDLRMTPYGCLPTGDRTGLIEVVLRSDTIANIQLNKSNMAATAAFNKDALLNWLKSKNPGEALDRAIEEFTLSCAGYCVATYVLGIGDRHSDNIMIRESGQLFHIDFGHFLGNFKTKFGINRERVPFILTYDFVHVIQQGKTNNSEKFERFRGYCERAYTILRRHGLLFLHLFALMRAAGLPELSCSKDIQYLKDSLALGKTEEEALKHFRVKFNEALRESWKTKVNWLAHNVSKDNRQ

| IC50 (PIK3CD (Human)) [nM] | IC50 (PIK3CG (human)) [nM] | Compound |
| --- | --- | --- |
| < 10 |  | CCC(Nc1nc(N)nc(C)c1/C=C/C(=O)Nc1cccc(C)n1)c1nc2cccc(C)c2c(=O)n1-c1ccccc1 (configuration not stated) |
| 20 to 100 | 20 to 100 | CCC(Nc1nc(N)ncc1-c1cncc(S(=O)(=O)N(C)C)c1)c1nc2cccc(F)c2c(=O)n1-c1ccccc1 (configuration not stated) |
| 20 to 100 | 20 to 100 | CCC(Nc1nc(N)ncc1-c1cncc(S(N)(=O)=O)c1)c1nc2cccc(F)c2c(=O)n1-c1ccccc1 (configuration not stated) |
| < 20 | 20 to 100 | CCC(Nc1nc(N)ncc1-c1cncc(S(=O)(=O)Nc2ccccc2F)c1)c1nc2cccc(F)c2c(=O)n1-c1ccccc1 (configuration not stated) |
| 10 to 100 |  | CCNC(=O)/C=C/c1c(C)nc(N)nc1NC(CC)c1nc2cccc(C)c2c(=O)n1-c1ccccc1 (configuration not stated) |
| < 20 | 20 to 100 | CCC(Nc1nc(N)ncc1-c1cncc(S(=O)(=O)Nc2ccc(F)c(Cl)c2)c1)c1nc2cccc(F)c2c(=O)n1-c1ccccc1 (configuration not stated) |
| 10 to 100 |  | CCC(Nc1nc(N)nc(C)c1/C=C/C(=O)N1CCNCC1)c1nc2cccc(C)c2c(=O)n1-c1ccccc1 (configuration not stated) |
| < 20 | 100 to 1000 | CCC(Nc1nc(N)ncc1-c1cncc(S(=O)(=O)Nc2ccccc2C)c1)c1nc2cccc(F)c2c(=O)n1-c1ccccc1 (configuration not stated) |
| 20 to 100 | 100 to 1000 | CCC(Nc1nc(N)nc(C)c1-c1cncc(S(N)(=O)=O)c1)c1nc2cccc(F)c2c(=O)n1-c1ccccc1 (configuration not stated) |
| < 20 | < 20 | CCC(Nc1nc(N)ncc1-c1cncc(S(=O)(=O)N2CCCC2)c1)c1nc2cccc(F)c2c(=O)n1-c1ccccc1 (configuration not stated) |
| < 20 | 20 to 100 | CCC(Nc1nc(N)ncc1-c1cncc(S(=O)(=O)NC(C)(C)C)c1)c1nc2cccc(C)c2c(=O)n1-c1ccccc1 (configuration not stated) |
| 10 to 100 |  | CCC(Nc1nc(N)nc(C)c1/C=C/C(=O)NC(C)C)c1nc2cccc(C)c2c(=O)n1-c1ccccc1 (configuration not stated) |
| < 10 |  | CCC(Nc1nc(N)nc(C)c1/C=C/C(N)=O)c1nc2cccc(C)c2c(=O)n1-c1ccccc1 (configuration not stated) |
| < 10 |  | CCC(Nc1nc(N)nc(C)c1/C=C/C(=O)Nc1nccs1)c1nc2cccc(C)c2c(=O)n1-c1ccccc1 (configuration not stated) |
| < 10 |  | CCC(Nc1nc(N)nc(C)c1/C=C/C(=O)NC)c1nc2cccc(C)c2c(=O)n1-c1ccccc1 (configuration not stated) |
| 20 to 100 | 100 to 1000 | CCC(Nc1nc(N)ncc1-c1cncc(S(=O)(=O)C(C)C)c1)c1nc2cccc(F)c2c(=O)n1-c1ccccc1 (configuration not stated) |
| 10 to 100 |  | CCC(Nc1nc(N)nc(C)c1/C=C/C(=O)Nc1ccncc1)c1nc2cccc(C)c2c(=O)n1-c1ccccc1 (configuration not stated) |
| < 10 |  | CCC(Nc1nc(N)nc(C)c1/C=C/C(=O)Nc1cccnc1)c1nc2cccc(C)c2c(=O)n1-c1ccccc1 (configuration not stated) |
| 10 to 100 |  | CCC(Nc1nc(N)nc(C)c1/C=C1\CC(=O)NC1=O)c1nc2cccc(C)c2c(=O)n1-c1ccccc1 (configuration not stated) |
| 10 to 100 |  | CCC(Nc1nc(N)nc(C)c1/C=C/C(=O)n1cccn1)c1nc2cccc(C)c2c(=O)n1-c1ccccc1 (configuration not stated) |
| < 10 |  | CCC(Nc1nc(N)nc(C)c1/C=C/C(=O)N1CCOCC1)c1nc2cccc(C)c2c(=O)n1-c1ccccc1 (configuration not stated) |
| 10 to 100 |  | C=Cc1c(C)nc(N)nc1NC(CC)c1nc2cccc(C)c2c(=O)n1-c1ccccc1 (configuration not stated) |
| < 10 |  | CCC(Nc1nc(N)nc(C)c1/C=C/C(=O)Nc1ccccn1)c1nc2cccc(C)c2c(=O)n1-c1ccccc1 (configuration not stated) |
